In article PMC8137473, “Preclinical trial of a MAP4K4 inhibitor to reduce infarct size in the pig: does cardioprotection in human stem cell-derived myocytes predict success in large mammals?” (Basic Research in Cardiology, 2021):

Experiments:
[1] = molecular target: MAP4K4 (Homo sapiens, UniProt O95819); assay: cell-free biochemical assay, MAP4K4 inhibition
Source text: DMX-10001, a rapidly hydrolyzed phosphate pro-drug of DMX-5804, was produced by Domainex Ltd, by a modification of the latter’s synthetic route, attaching a hydrolysable phosphate group via a linker to the core of DMX-5804 (Fig. 1a). This removes a key hydrogen bonding group and prevents DMX-10001 from binding to the hinge region of the MAP4K4 kinase domain. […] Furthermore, this modest value is likely driven by minute levels of DMX-5804 either present in the sample or generated during by hydrolysis during the assay.

[2] = tested on: porcine model of MI; assay: efficacy study: convertible ventricular fibrillation and defibrillation; set-up: species or system swine; conditions: in vivo
Method: Investigators involved in the experimental protocol and analysis of the data were blinded to the treatment status of each pig. Animals were randomly assigned to the treatment groups in two blocks, using a random number series generated online. To control further for potential investigator bias, inclusion and exclusion criteria were formulated prior to the onset of the study. Only healthy pigs weighing 38–48 kg, with a body temperature between 37.0 and 40.0 °C at the start of surgical preparation, were included. Exclusion criteria were: (i) Encountering ventricular fibrillation (VF) during the experimental protocol that could not be converted to sinus rhythm within 2 min. (ii) Encountering VF > 4 times before starting the drug or vehicle infusion. (iii) Developing progressive pump failure (mean arterial pressure (MAP) < 30 mmHg) during first 30 min of reperfusion. […]
The LAD was catheterized with a standard clinical guiding catheter (JL3.5, 6F, Medtronic, Minneapolis, MN), and quantitative coronary angiography (CAAS, PIE Medical, Maastricht, The Netherlands) was performed following 2 mg isosorbidedinitrate (Cedocard, Nycomed, Hoofddorp, The Netherlands) and using iodixanol as contrast agent (Visipaque™, GE Healthcare BV, Eindhoven, The Netherlands). […] Heart rate, aortic blood pressure, and ECG were monitored until 2 h of reperfusion.

Chain of MAP4K4 (O95819 whole entry, species assumed, the tested form may be a part): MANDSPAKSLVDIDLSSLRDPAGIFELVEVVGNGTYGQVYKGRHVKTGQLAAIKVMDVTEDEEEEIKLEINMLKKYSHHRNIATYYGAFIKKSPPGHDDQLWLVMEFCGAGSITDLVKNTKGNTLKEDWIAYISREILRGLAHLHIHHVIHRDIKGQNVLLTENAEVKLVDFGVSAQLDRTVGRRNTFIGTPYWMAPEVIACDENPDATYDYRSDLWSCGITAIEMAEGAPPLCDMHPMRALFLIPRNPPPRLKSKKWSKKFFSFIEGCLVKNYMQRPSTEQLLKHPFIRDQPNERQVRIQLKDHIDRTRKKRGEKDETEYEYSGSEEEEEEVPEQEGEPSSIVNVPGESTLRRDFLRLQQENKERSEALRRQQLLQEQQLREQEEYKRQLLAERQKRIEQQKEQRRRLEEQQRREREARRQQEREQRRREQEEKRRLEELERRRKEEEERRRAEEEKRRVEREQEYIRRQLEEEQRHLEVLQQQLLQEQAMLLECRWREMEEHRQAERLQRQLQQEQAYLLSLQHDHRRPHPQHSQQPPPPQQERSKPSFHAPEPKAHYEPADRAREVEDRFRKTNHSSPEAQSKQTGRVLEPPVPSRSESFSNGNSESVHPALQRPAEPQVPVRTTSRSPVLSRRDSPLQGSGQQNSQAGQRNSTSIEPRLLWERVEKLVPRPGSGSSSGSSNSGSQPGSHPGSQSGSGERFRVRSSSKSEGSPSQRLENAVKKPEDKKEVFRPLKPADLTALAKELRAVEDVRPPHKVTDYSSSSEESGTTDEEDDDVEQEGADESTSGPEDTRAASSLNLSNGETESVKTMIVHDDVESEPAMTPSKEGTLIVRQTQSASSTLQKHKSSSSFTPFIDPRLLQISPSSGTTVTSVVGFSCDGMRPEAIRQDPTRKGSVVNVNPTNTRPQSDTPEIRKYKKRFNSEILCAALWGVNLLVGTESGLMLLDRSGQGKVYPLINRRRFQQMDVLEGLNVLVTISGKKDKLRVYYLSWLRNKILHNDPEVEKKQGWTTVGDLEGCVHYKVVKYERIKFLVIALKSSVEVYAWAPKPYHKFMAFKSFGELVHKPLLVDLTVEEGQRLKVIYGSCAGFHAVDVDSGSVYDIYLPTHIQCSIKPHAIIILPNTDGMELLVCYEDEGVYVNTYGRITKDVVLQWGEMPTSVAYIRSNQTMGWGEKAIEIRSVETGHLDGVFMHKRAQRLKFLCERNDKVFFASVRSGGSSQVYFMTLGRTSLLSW

difference in IC50 against MAP4K4, DMX-10001 vs DMX-5804 [1]: > 750 fold | IC50 ([1]; cell-free biochemical assays, read-out: IC50 against MAP4K4): 2300 nM | VF during drug infusion [2]: did not occur
SMILES: COCCOc1ccc(-c2cn(-c3ccccc3)c3ncn(COP(=O)(O)O)c(=O)c23)cc1 [DMX-10001]
